According to publication PMC8393492, “Linking the Phytochemicals and the α-Glucosidase and α-Amylase Enzyme Inhibitory Effects of Nigella sativa Seed Extracts” (Foods, 2021):

Tests used:
intestinal α-glucosidase = intestinal α-glucosidase (Rattus norvegicus, UniProt P23739); experiment: In vitro intestinal α-glucosidase inhibitory assay (sucrose substrate, glucose release); format: biochemical; conditions: for Inhibition Type: Lineweaver–Burk plots, inhibitor 50 µM (acarbose 5 µM); for Vmax: enzyme Vmax in presence of inhibitor 50 µM (acarbose 5 µM), control 14.1 ± 0.7
Method: The effect of the N. sativa seed extracts and fractions against intestinal α-glucosidase activity was quantified colorimetrically by monitoring the glucose release from sucrose degradation, according to the protocol described by Ouassou et al.. The assay mixtures contained 100 µL of sucrose (50 Mm), 1000 μL of phosphate- buffer (50 mM; pH = 7.5), and 100 μL of intestinal α-glucosidase enzyme solution (10 IU). […] Then, tubes were incubated at 37 °C in a water bath for 25 min. The mixture was heated at 100 °C for 5 min to stop the enzymatic reaction, and the release of glucose was estimated by the glucose oxidase method using a commercially available auto-kit. The absorbance was measured at 500 nm, and the inhibition percentage was calculated using the below formula:Inhibitory activity percentage = ((Acontrol 500 nm − ATest 500 nm)/Acontrol 500 nm) × 100(1)
The assays were conducted as described above. […] The experiments were repeated three times.

[1] = extraction solvent; source not given; cited from earlier work
pancreatic α-amylase = molecular target: T1, pancreatic α-amylase (Sus scrofa, UniProt P00690); experiment: In vitro pancreatic α-amylase inhibitory assay (starch substrate, DNSA); conditions: for Inhibition Type: Lineweaver–Burk plots, inhibitor 50 µM (acarbose 5 µM); for Vmax: enzyme Vmax in presence of inhibitor 50 µM (acarbose 5 µM), control 29.6 ± 0.8
T1 sequence (P00690 16-511): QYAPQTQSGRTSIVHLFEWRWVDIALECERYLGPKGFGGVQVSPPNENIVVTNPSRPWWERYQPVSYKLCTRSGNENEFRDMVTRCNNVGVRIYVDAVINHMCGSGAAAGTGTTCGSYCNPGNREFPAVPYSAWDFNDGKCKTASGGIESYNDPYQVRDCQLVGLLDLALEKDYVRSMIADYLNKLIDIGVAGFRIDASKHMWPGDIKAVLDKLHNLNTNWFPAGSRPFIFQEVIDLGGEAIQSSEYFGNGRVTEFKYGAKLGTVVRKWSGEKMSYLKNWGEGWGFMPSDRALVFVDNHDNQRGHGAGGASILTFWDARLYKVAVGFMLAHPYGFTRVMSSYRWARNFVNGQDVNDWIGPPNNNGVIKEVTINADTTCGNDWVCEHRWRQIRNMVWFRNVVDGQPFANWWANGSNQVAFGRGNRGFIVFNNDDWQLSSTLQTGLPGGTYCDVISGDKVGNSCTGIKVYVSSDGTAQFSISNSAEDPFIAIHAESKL
Method: The inhibition of pancreatic α-amylase activity by N. sativa seed extracts and fractions was studied according to the procedure described by Daoudi et al. [29]. […] The mixtures were pre-incubated at 37 °C for 10 min. Then, 200 μL of starch (1% (w/v)) dissolved in phosphate buffer was added to each tube and were incubated for 20 min at 37 °C. To stop the enzymatic reaction 600 μL of DNSA color reagent was added. Hereafter, the tubes were incubated for 8 min at 100 °C, before being put in an ice-cold-water bath for a few minutes. The mixture was diluted by adding 1 mL of distilled water and the absorbance was measured at 540 nm. Inhibition percentage was calculated using the formula bellows:Inhibitory activity percentage= ((AControl 540 nm − ATest 540 nm)/AControl 540 nm) × 100(2)
Lineweaver–Burk double reciprocal representation (plotting 1/velocity vs 1/substrate concentration) was used to assess inhibition mode, and kinetic parameters Km and Vmax were determined using the Michaelis-Menten equation.
Secondary plots were used to establish the inhibition constants Ki (slope of the Lineweaver–Burk double reciprocal representation vs inhibitor concentration and intercept of the Lineweaver–Burk double reciprocal representation vs inhibitor concentration).

Sequence of intestinal α-glucosidase (P23739 whole entry): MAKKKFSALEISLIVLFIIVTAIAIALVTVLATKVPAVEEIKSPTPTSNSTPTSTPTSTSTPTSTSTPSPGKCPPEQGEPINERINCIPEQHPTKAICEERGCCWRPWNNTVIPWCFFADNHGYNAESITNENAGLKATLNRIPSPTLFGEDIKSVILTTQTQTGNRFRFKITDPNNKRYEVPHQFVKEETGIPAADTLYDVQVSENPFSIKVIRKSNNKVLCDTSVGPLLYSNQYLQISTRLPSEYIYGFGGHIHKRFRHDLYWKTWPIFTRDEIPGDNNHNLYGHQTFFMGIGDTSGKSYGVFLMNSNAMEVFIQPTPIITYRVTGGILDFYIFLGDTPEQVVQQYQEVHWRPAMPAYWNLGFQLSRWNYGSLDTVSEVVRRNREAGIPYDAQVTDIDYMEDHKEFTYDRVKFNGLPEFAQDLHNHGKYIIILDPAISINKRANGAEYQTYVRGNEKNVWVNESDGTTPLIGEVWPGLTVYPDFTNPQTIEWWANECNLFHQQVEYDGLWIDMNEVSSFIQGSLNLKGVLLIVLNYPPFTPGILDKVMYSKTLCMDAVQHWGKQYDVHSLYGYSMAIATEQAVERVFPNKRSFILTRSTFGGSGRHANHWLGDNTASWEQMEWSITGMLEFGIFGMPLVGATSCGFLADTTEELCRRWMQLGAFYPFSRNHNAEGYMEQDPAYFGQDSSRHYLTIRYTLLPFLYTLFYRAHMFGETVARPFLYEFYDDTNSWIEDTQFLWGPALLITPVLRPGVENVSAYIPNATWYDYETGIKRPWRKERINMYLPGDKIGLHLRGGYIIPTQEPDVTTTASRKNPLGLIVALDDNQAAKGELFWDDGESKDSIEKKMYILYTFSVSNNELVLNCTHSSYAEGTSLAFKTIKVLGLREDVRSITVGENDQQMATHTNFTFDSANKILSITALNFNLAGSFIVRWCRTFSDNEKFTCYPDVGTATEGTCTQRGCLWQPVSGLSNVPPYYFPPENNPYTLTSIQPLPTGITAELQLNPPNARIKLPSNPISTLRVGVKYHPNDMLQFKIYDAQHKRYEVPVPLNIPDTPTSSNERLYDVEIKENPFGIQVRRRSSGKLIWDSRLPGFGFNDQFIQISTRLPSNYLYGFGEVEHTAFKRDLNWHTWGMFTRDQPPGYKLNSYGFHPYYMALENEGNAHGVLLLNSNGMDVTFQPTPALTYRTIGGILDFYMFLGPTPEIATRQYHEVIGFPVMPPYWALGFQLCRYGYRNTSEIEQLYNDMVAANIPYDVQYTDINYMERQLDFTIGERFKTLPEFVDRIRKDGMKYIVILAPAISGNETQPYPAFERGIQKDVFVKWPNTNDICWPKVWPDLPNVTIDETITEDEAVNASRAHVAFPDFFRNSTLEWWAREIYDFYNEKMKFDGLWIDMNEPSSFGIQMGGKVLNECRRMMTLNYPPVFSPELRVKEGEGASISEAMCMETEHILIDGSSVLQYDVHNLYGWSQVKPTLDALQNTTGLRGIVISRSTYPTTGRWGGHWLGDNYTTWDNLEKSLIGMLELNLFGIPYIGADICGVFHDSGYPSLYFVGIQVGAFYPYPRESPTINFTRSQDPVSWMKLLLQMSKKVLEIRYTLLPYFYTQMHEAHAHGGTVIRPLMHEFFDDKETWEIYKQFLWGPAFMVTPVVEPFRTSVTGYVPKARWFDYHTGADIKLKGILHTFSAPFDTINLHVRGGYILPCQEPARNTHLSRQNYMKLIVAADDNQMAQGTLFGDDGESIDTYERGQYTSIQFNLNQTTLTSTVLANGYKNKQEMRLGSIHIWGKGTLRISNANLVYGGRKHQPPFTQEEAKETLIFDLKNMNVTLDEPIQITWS

SMILES	Inhibition Type (intestinal α-glucosidase)	Vmax (intestinal α-glucosidase)	Inhibition Type (pancreatic α-amylase)	Vmax (pancreatic α-amylase)	other results
CC1=CC(=O)C(C(C)C)=CC1=O [thymoquinone]					inhibition of intestinal α-glucosidase (in words) (intestinal α-glucosidase; under the evaluated concentration range (50 µM in kinetics), data not shown): not active
Oc1cc(O)c2c(c1)O[C@@H](c1ccc(O)c(O)c1)[C@H](O)C2 [(−)-Catechin, (−)-catechin]	Noncompetitive	13.1 ± 0.9 µM/min			fractional inhibition concentration (FIC) (intestinal α-glucosidase; mixed with acarbose, FIC = IC50 in combination with acarbose/IC50 alone, synergistic effect): 0.16
CC(C)=O [Acetone]					logP [1]: −0.16
C[C@H]1O[C@H](O[C@H]2[C@H](O)[C@@H](O)[C@@H](O[C@H]3[C@H](O)[C@@H](O)C(O)O[C@@H]3CO)O[C@@H]2CO)[C@H](O)[C@@H](O)[C@@H]1N[C@H]1C=C(CO)[C@@H](O)[C@H](O)[C@H]1O (stereo partly shown) [Acarbose, acarbose, reference compound]	Competitive	23.9 ± 0.5 µM/min	Competitive	53.8 ± 1.1 µM/min	Inhibition of pancreatic α-amylase activity (pancreatic α-amylase; positive control at 5 µM (3.22 µg/mL)): 65.6 ± 4.1%; inhibition at 50 µM (intestinal α-glucosidase; read-out: Inhibition of intestinal α-glucosidase activity): 89.2 ± 0.5%
O=c1cc(-c2ccc(O)cc2)oc2cc(O)cc(O)c12 [Apigenin, apigenin]			Competitive	90.1 ± 0.7 µM/min	fractional inhibition concentration (FIC) (pancreatic α-amylase; combined with acarbose, possible additive effect): 0.74
O=C(O)c1cc(O)c(O)c(O)c1 [Gallic acid, gallic acid]	Noncompetitive	14.7 ± 1.2 µM/min	Competitive	76.9 ± 1.4 µM/min	IC50 (pancreatic α-amylase): 27.8 ± 2.06 µM
